target: T1, human orexin type 2 receptor (hOX2R) (Homo sapiens, UniProt O43614); assay: cell-based
T1 sequence (O43614 1-444): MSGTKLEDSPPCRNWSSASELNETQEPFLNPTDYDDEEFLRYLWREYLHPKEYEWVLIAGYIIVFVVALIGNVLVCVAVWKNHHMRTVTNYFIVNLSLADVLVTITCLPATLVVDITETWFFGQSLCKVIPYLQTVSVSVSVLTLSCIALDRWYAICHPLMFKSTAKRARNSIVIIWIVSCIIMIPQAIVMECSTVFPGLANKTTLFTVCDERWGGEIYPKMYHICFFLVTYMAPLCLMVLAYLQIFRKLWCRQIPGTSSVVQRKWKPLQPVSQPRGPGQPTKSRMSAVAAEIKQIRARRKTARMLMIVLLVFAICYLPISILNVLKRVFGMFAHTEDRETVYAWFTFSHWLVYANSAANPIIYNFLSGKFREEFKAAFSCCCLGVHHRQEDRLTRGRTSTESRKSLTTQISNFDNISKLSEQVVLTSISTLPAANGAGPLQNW
Description: Measurement of orexin type 2 receptor agonist activity. […] After removal of the medium, 50 μl of assay buffer 1 (0.1% bovine serum albumin (Sigma Aldrich), 20 mM HEPES (Molecular Dimensions), 250 mM probenecid (Sigma Aldrich), 1× Calcium 5 dye (Molecular Devices) in Hank's balanced salt solution (Invitrogen)) was added, and the cells were incubated for 60 min under the conditions of 37° C., 5% CO2. A test compound was dissolved in dimethyl sulfoxide (Sigma Aldrich) to 10 mM, and then diluted with assay buffer 2 (20 mM HEPES, Hank's balanced salt solution, 0.1% bovine serum albumin). For the reaction, a test compound solution (10 μl) was added using Fluorescent Imaging Plate Reader TETRA (FLIPR TETRA: manufactured by Molecular Devices), a fluorescence value (excitation wavelength 488 nm, measurement wavelength 570 nm) of each well was measured every one second for 2 min, and the agonist activity was determined using the area of the fluorescence value as an indicator of intracellular Ca^2+ concentration. The agonist activity of the test compound was calculated assuming that the fluorescence value of the well added with only the dilution buffer was 0% and the fluorescence value of the well added with 10 nM human orexin A (Tocris) buffer was 100%.
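Further: agonist activity in CHO cells stably expressing hOX2R, intracellular Ca2+ via Calcium 5 dye fluorescence area over 2 min, buffer-only as 0% and 10 nM orexin A as 100%.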

SMILES | EC50 [nM]
CC(F)(F)CNC(=O)N1CC2(CC2)[C@H](NS(=O)(=O)CF)[C@@H]1Cc1cc(F)cc(-c2ccccc2)c1F [compound 74, (6S,7S)-6-((2,5-difluoro-[1,1′-biphenyl]-3-yl)methyl)-N-(2,2-difluoropropyl)-7-((fluoromethyl)sulfonamido)-5-azaspiro[2.4]heptane-5-carboxamide] | 1 to 10
CC[C@@](C)(O)C(=O)N1CC2(CC2)[C@H](NS(=O)(=O)C(F)F)[C@@H]1Cc1cccc(-c2cc(F)cc(F)c2)c1F [compound 77, 1,1-difluoro-N-((6S,7S)-5-((R)-2-hydroxy-2-methylbutanoyl)-6-((2,3′,5′-trifluoro-[1,1′-biphenyl]-3-yl)methyl)-5-azaspiro[2.4]heptan-7-yl)methanesulfonamide] | 0.0631 to 1
CO[C@@H](C)C(=O)N1CC2(CC2)[C@H](NS(=O)(=O)CF)[C@@H]1Cc1cccc(-c2cc(F)cc(F)c2)c1F [compound 69, 1-fluoro-N-((6S,7S)-5-((S)-2-methoxypropanoyl)-6-((2,3′,5′-trifluoro-[1,1′-biphenyl]-3-yl)methyl)-5-azaspiro[2.4]heptan-7-yl)methanesulfonamide] | 0.0631 to 1
C[C@@H](NC(=O)N1CC2(CC2)[C@H](NS(=O)(=O)CF)[C@@H]1Cc1cc(F)cc(-c2ccccc2)c1F)C(F)F [compound 88, (6S,7S)-6-((2,5-difluoro-[1,1′-biphenyl]-3-yl)methyl)-N-((R)-1,1-difluoropropan-2-yl)-7-((fluoromethyl)sulfonamido)-5-azaspiro[2.4]heptane-5-carboxamide] | 1 to 10
CC[C@](C)(O)C(=O)N1CC2(CC2)[C@H](NS(=O)(=O)CF)[C@@H]1Cc1cccc(-c2cccc(F)c2)c1F [compound 33, N-((6S,7S)-6-((2,3′-difluoro-[1,1′-biphenyl]-3-yl)methyl)-5-((S)-2-hydroxy-2-methylbutanoyl)-5-azaspiro[2.4]heptan-7-yl)-1-fluoromethanesulfonamide] | 0.0631 to 1
N#C[C@]1(C(=O)N2CC3(CC3)[C@H](NS(=O)(=O)CF)[C@@H]2Cc2cc(F)cc(-c3ccccc3)c2F)C[C@@H](F)C1 [compound 90, N-((6S,7S)-5-((1s,3R)-1-cyano-3-fluorocyclobutane-1-carbonyl)-6-((2,5-difluoro-[1,1′-biphenyl]-3-yl)methyl)-5-azaspiro[2.4]heptan-7-yl)-1-fluoromethanesulfonamide] | 1 to 10
C[C@H](F)S(=O)(=O)N[C@@H]1[C@H](Cc2cc(F)cc(-c3cc(F)cc(F)c3)c2F)N(C(=O)[C@H]2CCO2)CC12CC2 [compound 58, (R)-1-fluoro-N-((6S,7S)-5-((R)-oxetane-2-carbonyl)-6-((2,3′,5,5′-tetrafluoro-[1,1′-biphenyl]-3-yl)methyl)-5-azaspiro[2.4]heptan-7-yl)ethane-1-sulfonamide] | 1 to 10
C[C@H](C#N)C(=O)N1CC2(CC2)[C@H](NS(=O)(=O)C(F)F)[C@@H]1Cc1cccc(-c2ccccc2)c1F [compound 40, N-((6S,7S)-5-((R)-2-cyanopropanoyl)-6-((2-fluoro-[1,1′-biphenyl]-3-yl)methyl)-5-azaspiro[2.4]heptan-7-yl)-1,1-difluoromethanesulfonamide] | 1 to 10
C[C@@](O)(CF)C(=O)N1CC2(CC2)[C@H](NS(=O)(=O)CF)[C@@H]1Cc1cccc(-c2ccccc2)c1F [compound 35, 1-fluoro-N-((6S,7S)-5-((S)-3-fluoro-2-hydroxy-2-methylpropanoyl)-6-((2-fluoro-[1,1′-biphenyl]-3-yl)methyl)-5-azaspiro[2.4]heptan-7-yl)methanesulfonamide] | 0.0631 to 1
O=C([C@H]1CCO1)N1CC2(CC2)[C@H](NS(=O)(=O)C2(F)CC2)[C@@H]1Cc1cccc(-c2ccccc2)c1F [compound 10, 1-fluoro-N-((6S,7S)-6-((2-fluoro-[1,1′-biphenyl]-3-yl)methyl)-5-((R)-oxetane-2-carbonyl)-5-azaspiro[2.4]heptan-7-yl)cyclopropane-1-sulfonamide] | 0.0631 to 1
C[C@@H](C#N)C(=O)N1CC2(CC2)[C@H](NS(=O)(=O)C(F)F)[C@@H]1Cc1cccc(-c2cc(F)cc(F)c2)c1F [compound 70, N-((6S,7S)-5-((S)-2-cyanopropanoyl)-6-((2,3′,5′-trifluoro-[1,1′-biphenyl]-3-yl)methyl)-5-azaspiro[2.4]heptan-7-yl)-1,1-difluoromethanesulfonamide] | 1 to 10
C[C@H](CF)NC(=O)N1CC2(CC2)[C@H](NS(=O)(=O)CF)[C@@H]1Cc1cccc(-c2cc(F)cc(F)c2)c1F [compound 61, (6S,7S)-7-((fluoromethyl)sulfonamido)-N-((R)-1-fluoropropan-2-yl)-6-((2,3′,5′-trifluoro-[1,1′-biphenyl]-3-yl)methyl)-5-azaspiro[2.4]heptane-5-carboxamide] | 0.0631 to 1
CC(C)(F)CNC(=O)N1CC2(CC2)[C@H](NS(=O)(=O)CF)[C@@H]1Cc1cc(F)cc(-c2ccccc2)c1F [compound 51, (6S,7S)-6-((2,5-difluoro-[1,1′-biphenyl]-3-yl)methyl)-N-(2-fluoro-2-methylpropyl)-7-((fluoromethyl)sulfonamido)-5-azaspiro[2.4]heptane-5-carboxamide] | 0.0631 to 1
O=C(N1CC2(CC2)[C@H](NS(=O)(=O)CF)[C@@H]1Cc1cccc(-c2ccccc2)c1F)C1(CF)COC1 [compound 81, 1-fluoro-N-((6S,7S)-6-((2-fluoro-[1,1′-biphenyl]-3-yl)methyl)-5-(3-(fluoromethyl)oxetane-3-carbonyl)-5-azaspiro[2.4]heptan-7-yl)methanesulfonamide] | 1 to 10
CC(C)(F)CNC(=O)N1CC2(CC2)[C@H](NS(=O)(=O)CF)[C@@H]1Cc1cccc(-c2cc(F)cc(F)c2)c1F [compound 37, (6S,7S)-N-(2-fluoro-2-methylpropyl)-7-((fluoromethyl)sulfonamido)-6-((2,3′,5′-trifluoro-[1,1′-biphenyl]-3-yl)methyl)-5-azaspiro[2.4]heptane-5-carboxamide] | 1 to 10
CC[C@@](C)(O)C(=O)N1CC2(CC2)[C@H](NS(=O)(=O)CF)[C@@H]1Cc1cccc(-c2cccc(F)c2)c1F [compound 30, N-((6S,7S)-6-((2,3′-difluoro-[1,1′-biphenyl]-3-yl)methyl)-5-((R)-2-hydroxy-2-methylbutanoyl)-5-azaspiro[2.4]heptan-7-yl)-1-fluoromethanesulfonamide] | 0.0631 to 1
C[C@H](C#N)C(=O)N1CC2(CC2)[C@H](NS(=O)(=O)CF)[C@@H]1Cc1cccc(-c2cc(F)cc(F)c2)c1F [compound 62, N-((6S,7S)-5-((R)-2-cyanopropanoyl)-6-((2,3′,5′-trifluoro-[1,1′-biphenyl]-3-yl)methyl)-5-azaspiro[2.4]heptan-7-yl)-1-fluoromethanesulfonamide] | 1 to 10
N#C[C@]1(C(=O)N2CC3(CC3)[C@H](NS(=O)(=O)CF)[C@@H]2Cc2cc(F)cc(-c3ccccc3)c2F)C[C@H](F)C1 [compound 89, N-((6S,7S)-5-((1r,3S)-1-cyano-3-fluorocyclobutane-1-carbonyl)-6-((2,5-difluoro-[1,1′-biphenyl]-3-yl)methyl)-5-azaspiro[2.4]heptan-7-yl)-1-fluoromethanesulfonamide] | 1 to 10
